In patent US20250099433A1, “COMPOSITION AND METHOD FOR TREATMENT OF GRAM NEGATIVE BACTERIAL INFECTION” (The Research Foundation for the State University of New York, priority 2021, published 2025):
In brackets after ≈: the same amount, converted by molar mass. Several values for one entry are separate records, joined by “and”; a condition that tells them apart may be missing. Equal entries are not always repeated. Where two headings read alike, the source gives them in different places.

Assays:
[1] = target: paLpxC (Pseudomonas aeruginosa (strain ATCC 15692 / DSM 22644 / CIP 104116 / JCM 14847 / LMG 12228 / 1C / PRS 101 / PAO1), UniProt P47205); test: biochemical; format: binding; conditions: for tR (min) Fluorescence assay: tR = 1/koff; for kon: read-out: Kon (μM^−1s^−1)
[2] = system: P. aeruginosa PAO1; test: MIC by microbroth dilution, P. aeruginosa PAO1; conditions: for MIC: Pseudomonas aeruginosa, PAO1, read-out: MIC (μM) (PAO1)
[3] = system: efflux-pump mutant strain (ΔMexABCDXY) (paEP); test: MIC by microbroth dilution, efflux-pump mutant P. aeruginosa; conditions: for MIC: Pseudomonas aeruginosa, read-out: MIC (μM) (paEP)
Excerpt: Bacterial Strains. […] The efflux-pump deficient P. aeruginosa strain (ΔMexABCDXY), N150, was derived from PAO1.
Minimum Inhibitory Concentration (MIC) Measurements.

[4] = 37° C., fluorescence competition

Chain of paLpxC (P47205 1-299): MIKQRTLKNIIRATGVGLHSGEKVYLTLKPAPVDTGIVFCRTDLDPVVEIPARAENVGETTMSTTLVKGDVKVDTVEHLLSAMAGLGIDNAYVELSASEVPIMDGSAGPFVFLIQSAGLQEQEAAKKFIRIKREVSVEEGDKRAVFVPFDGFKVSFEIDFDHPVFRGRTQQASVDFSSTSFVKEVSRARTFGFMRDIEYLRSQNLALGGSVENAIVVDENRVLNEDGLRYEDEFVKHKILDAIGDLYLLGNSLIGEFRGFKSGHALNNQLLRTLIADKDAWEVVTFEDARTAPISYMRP

SMILES | Ki [1, 4] | tR (min) Fluorescence assay ([1]; 37° C.) | koff ([1]; read-out: Koff (s^−1)) | kon [1] | MIC [2] | MIC [3] | residence time fold longer than 1 ([1]; fluorescence assay, 37° C.) | binding to paLpxC (Kon, Koff, tR, Ki) [1, 4] | Kon [1, 4] | koff [1, 4] | MIC (μM) (PAO1) ([2]; wild-type P. aeruginosa PAO1) | MIC (μM) (paEP) ([3]; efflux-pump mutant ΔMexABCDXY)
CC(CCn1ccc(-c2ccc(-c3cn(Cc4ccncn4)nn3)cc2)cc1=O)(C(=O)NO)S(C)(=O)=O (racemic) [PT916, N-hydroxy-2-methyl-2-(methylsulfonyl)-4-(2-oxo-4-(4-(1-(pyrimidin-4-ylmethyl)-1H-1,2,3-triazol-4-yl)phenyl)pyridin-1(2H)-yl)butanamide] | 4.2 ± 2.2 pM | 102.7 ± 20.2 min | 0.00017 ± 3e-05 s⁻¹ | 44.3 ± 14.5 µM⁻¹ s⁻¹ | 50 µM (≈ 26.2 µg/mL) | 3.12 µM (≈ 1.64 µg/mL) |  |  |  |  |  | 
CC(CCn1ccc(-c2ccc(-c3cn(Cc4cccnc4)nn3)cc2)cc1=O)(C(=O)NO)S(C)(=O)=O (racemic) [PT917, N-hydroxy-2-methyl-2-(methylsulfonyl)-4-(2-oxo-4-(4-(1-(pyridin-3-ylmethyl)-1H-1,2,3-triazol-4-yl)phenyl)pyridin-1(2H)-yl)butanamide] | 3.2 ± 0.2 pM | 121.3 ± 4.4 min | 0.00014 ± 1e-05 s⁻¹ | 42.8 ± 1.3 µM⁻¹ s⁻¹ |  |  | ~3 fold |  |  |  |  | 
CC(CCn1ccc(-c2ccc(-c3cn(Cc4ccc([N+](=O)[O-])cc4)nn3)cc2)cc1=O)(C(=O)NO)S(C)(=O)=O (racemic) [PT918, N-hydroxy-2-methyl-2-(methylsulfonyl)-4-(4-(4-(1-(4-nitrobenzyl)-1H-1,2,3-triazol-4-yl)phenyl)-2-oxopyridin-1(2H)-yl)butanamide] | 7 ± 1 pM | 78.5 ± 8.4 min | 0.00021 ± 2e-05 s⁻¹ | 30.7 ± 0.1 µM⁻¹ s⁻¹ | 6.25 µM (≈ 3.54 µg/mL) | 0.1 µM (≈ 0.0567 µg/mL) |  |  |  |  |  | 
CC(CCn1ccc(-c2ccc(C(=O)NCc3ccccc3)cc2)cc1=O)(C(=O)NO)S(C)(=O)=O (racemic) [PT923, N-benzyl-4-(1-(4-(hydroxyamino)-3-methyl-3-(methylsulfonyl)-4-oxobutyl)-2-oxo-1,2-dihydropyridin-4-yl)benzamide] | 274 ± 76.6 pM | 8.0 ± 1.2 min | 0.0021 ± 0.0003 s⁻¹ | 23.8 ± 18.8 µM⁻¹ s⁻¹ | 25 µM (≈ 12.4 µg/mL) | 3.12 µM (≈ 1.55 µg/mL) |  |  |  |  |  | 
CC(CCn1ccc(-c2ccc(NC(=O)Cc3ccccc3)cc2)cc1=O)(C(=O)NO)S(C)(=O)=O (racemic) [PT924, N-hydroxy-2-methyl-2-(methylsulfonyl)-4-(2-oxo-4-(4-(2-phenylacetamido)phenyl)pyridin-1(2H)-yl)butanamide] | 95.4 ± 16.2 pM | 4.0 ± 1.0 min | 0.0043 ± 0.0009 s⁻¹ | 44.8 ± 5.4 µM⁻¹ s⁻¹ | 50 µM (≈ 24.9 µg/mL) | 3.12 µM (≈ 1.55 µg/mL) |  |  |  |  |  | 
C[C@@H](O)C(NC(=O)c1ccc(-c2cn(Cc3ccccc3)nn2)cc1)C(=O)NO (stereo partly drawn) [PT903, 4-(1-benzyl-1H-1,2,3-triazol-4-yl)-N-((3R)-3-hydroxy-1-(hydroxyamino)-1-oxobutan-2-yl)benzamide] |  |  |  |  | > 50 µM | > 12.5 µM |  | No binding was observed |  |  |  | 
CC(CCn1ccc(-c2ccc(N)cc2)cc1=O)(C(=O)NO)S(C)(=O)=O (centres unmarked) [PT919] | 4 ± 3 pM | 121.15 ± 30 min |  |  |  |  |  |  | 6.427e+07 ± 5.976e+07 M⁻¹ s⁻¹ | 0.000143 ± 0.00003 s⁻¹ | 12.5 µM (≈ 4.74 µg/mL) | 0.78 µM (≈ 0.296 µg/mL)
COc1ccc(-c2ccc(CNC3(C(=O)NO)CCS(=O)(=O)CC3)cc2F)cc1 [PT921, 4-(((2-fluoro-4′-methoxy-[1,1′-biphenyl]-4-yl)methyl)amino)-N-hydroxytetrahydro-2H-thiopyran-4-carboxamide 1,1-dioxide] | 14.4 ± 2.5 pM | 34.3 ± 1.0 min | 0.00049 ± 1e-05 s⁻¹ | 34.5 ± 6.3 µM⁻¹ s⁻¹ | 0.8 µM (≈ 0.338 µg/mL) | 0.1 µM (≈ 0.0422 µg/mL) |  |  |  |  |  | 
CC(CCn1ccc(-c2ccc(-c3cnnn3Cc3ccccc3)cc2)cc1=O)(C(N)=O)S(C)(=O)=O (centres unmarked) [PT925, 4-(4-(4-(1-benzyl-1H-1,2,3-triazol-5-yl)phenyl)-2-oxopyridin-1(2H)-yl)-2-methyl-2-(methylsulfonyl)butanamide] |  | 9 min and 9.0 ± 0.9 min |  |  | 50 µM (≈ 25.3 µg/mL) | 12.5 µM (≈ 6.32 µg/mL) |  |  |  |  |  | 
